Among the data in ChEMBL document CHEMBL1201862, “PubChem BioAssay data set” (2004) are EC50, IC50 and AC50 values, retold here.

Activity calls are given as the source filed them. Rule as the data show it, for most assays here: actives have a measured EC50 and inactives only a lower limit.

Assay [1] is described as follows: Luminescence Cell-Based Dose Confirmation HTS to Identify Activators of 5'UTR Stem-Loop Driven Alpha-Synuclein mRNA Translation in H4 Neuroglioblastoma Cells. [Related pubchem assays: 1829 (Project Summary), 1814 (Primary HTS)]. In kind it is functional.
A further assay deals with H4. The experiment in a line: Luminescence Cell-Based Dose Response HTS to Identify Activators of 5'UTR Stem-Loop Driven Prion Protein mRNA Translation in H4 Neuroglioblastoma Cells. [Related pubchem assays: 1829 (Project Summary), 1814 (Primary HTS)]. In kind it is functional. The settings on record: Homo sapiens.
Assay [2] can be described thus: Luminescence Cell-Based Dose Response HTS to Identify Activators of Luciferase Translation or Activity in H4 […] Cells. [Related pubchem assays: 1829 (Project Summary), 1814 (Primary HTS)]. In kind it is functional.
The target of assay [3] is T1, Fatty acid synthase (Homo sapiens, UniProt P49327). The experiment in a line: inhibition of human FAS-TE enzyme activity – biochemical, endpoint fluorescence intensity, uHTS hits, dose response (AID 624327).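 Also: fluorescence from hydrolysis of an O-methyl fluorescein acyl ester substrate by the enzyme.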 In kind it is functional.
Assay [4] has as its target T1, Fatty acid synthase. The experiment in a line: inhibition of human FAS-TE enzyme activity – biochemical, kinetic fluorescence intensity, dose response (AID 624326).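 Also: rate of fluorescence rise from hydrolysis of a fluorogenic O-methyl fluorescein ester substrate.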 In kind it is functional.
A short description of assay [5]: cells. In kind it is functional, cell-based.
Assay [6] is described as follows: cells. In kind it is functional, cell-based. The source holds these as a separate data set.
A further assay deals with Paired box protein Pax-8 (Homo sapiens, UniProt Q06710). The experiment in a line: PAX8 transcriptional activity inhibition in RMG-I – RMG-I cells, luciferase, cherry-pick, dose response (AID 687027).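 Also: luciferase reporter driven by Pax8 target thyroperoxidase promoter measured by SteadyGlo luminescence.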 In kind it is functional, cell-based.
A short description of assay [7]: OVCAR8 cell viability loss – plate reader, dry powder samples, PAX8 project, dose response (AID 743197). In kind it is functional, cell-based. As to conditions: OVCAR-8.
In assay [8] the target is T2, Zinc finger protein mex-5 (Caenorhabditis elegans, UniProt Q9XUB2).
T2 sequence (Q9XUB2 whole entry): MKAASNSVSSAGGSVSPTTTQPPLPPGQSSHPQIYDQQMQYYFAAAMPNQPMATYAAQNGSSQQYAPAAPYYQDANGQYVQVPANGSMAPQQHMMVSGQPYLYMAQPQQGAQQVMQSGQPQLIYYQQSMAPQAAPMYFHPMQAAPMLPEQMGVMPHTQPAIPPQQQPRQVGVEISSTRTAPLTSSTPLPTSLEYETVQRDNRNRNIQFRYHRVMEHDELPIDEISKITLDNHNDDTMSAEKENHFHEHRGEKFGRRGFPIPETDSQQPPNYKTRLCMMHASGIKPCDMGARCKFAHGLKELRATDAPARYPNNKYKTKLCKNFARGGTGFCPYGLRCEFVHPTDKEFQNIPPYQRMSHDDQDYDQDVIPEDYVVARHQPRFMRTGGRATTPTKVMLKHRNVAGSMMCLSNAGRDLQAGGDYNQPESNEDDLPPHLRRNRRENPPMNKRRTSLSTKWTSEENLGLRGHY
The experiment in a line: potency of MEX-5 RNA-binding blockers – biochemical, C. elegans, fluorescence polarization, dose response (AID 1960).

Assay [9] addresses T3, RNA-binding protein pos-1 (Caenorhabditis elegans, UniProt G5EF15).
T3 sequence (G5EF15 whole entry): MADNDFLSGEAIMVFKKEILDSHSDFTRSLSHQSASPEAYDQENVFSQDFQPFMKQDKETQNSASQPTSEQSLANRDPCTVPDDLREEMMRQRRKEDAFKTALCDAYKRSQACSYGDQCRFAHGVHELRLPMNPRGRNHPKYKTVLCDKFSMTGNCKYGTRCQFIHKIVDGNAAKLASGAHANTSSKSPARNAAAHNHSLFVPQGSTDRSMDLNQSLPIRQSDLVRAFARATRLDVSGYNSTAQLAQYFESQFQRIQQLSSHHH
The experiment in a line: disruptors of C. elegans POS-1 RNA interaction – biochemical, fluorescence polarization, dose response (AID 1964). (Fluorescence polarisation rises when a labelled molecule tumbles more slowly, as on binding a larger partner.)

Assay [10] has as its target T4, Heat shock factor protein 1 (Mus musculus, UniProt P38532).
T4 sequence (P38532 whole entry): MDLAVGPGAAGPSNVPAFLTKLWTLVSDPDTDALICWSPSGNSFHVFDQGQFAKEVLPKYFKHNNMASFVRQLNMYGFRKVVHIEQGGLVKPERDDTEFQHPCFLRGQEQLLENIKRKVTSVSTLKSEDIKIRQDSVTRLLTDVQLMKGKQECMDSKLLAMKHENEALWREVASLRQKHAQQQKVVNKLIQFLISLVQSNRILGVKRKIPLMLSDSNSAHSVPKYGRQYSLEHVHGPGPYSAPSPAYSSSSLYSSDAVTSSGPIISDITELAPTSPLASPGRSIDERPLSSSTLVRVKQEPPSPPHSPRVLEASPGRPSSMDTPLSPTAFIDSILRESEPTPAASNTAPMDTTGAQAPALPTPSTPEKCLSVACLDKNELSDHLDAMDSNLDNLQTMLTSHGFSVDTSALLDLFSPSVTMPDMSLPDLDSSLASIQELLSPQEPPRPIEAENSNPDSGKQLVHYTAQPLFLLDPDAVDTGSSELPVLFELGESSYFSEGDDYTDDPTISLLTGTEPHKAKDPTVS
The experiment in a line: decrease of HSF1-responsive luciferase luminescence – cell-based, NIH3T3, dose retest, confirmation (AID 2382).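 Also: NIH3T3 fibroblasts with HSF1-driven luciferase reporter stressed by proteasome inhibitor MG132; luminescence from HSF1-driven luciferase expression after 8 hours of MG132 stress.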 In kind it is functional.

T1 sequence (P49327 whole entry): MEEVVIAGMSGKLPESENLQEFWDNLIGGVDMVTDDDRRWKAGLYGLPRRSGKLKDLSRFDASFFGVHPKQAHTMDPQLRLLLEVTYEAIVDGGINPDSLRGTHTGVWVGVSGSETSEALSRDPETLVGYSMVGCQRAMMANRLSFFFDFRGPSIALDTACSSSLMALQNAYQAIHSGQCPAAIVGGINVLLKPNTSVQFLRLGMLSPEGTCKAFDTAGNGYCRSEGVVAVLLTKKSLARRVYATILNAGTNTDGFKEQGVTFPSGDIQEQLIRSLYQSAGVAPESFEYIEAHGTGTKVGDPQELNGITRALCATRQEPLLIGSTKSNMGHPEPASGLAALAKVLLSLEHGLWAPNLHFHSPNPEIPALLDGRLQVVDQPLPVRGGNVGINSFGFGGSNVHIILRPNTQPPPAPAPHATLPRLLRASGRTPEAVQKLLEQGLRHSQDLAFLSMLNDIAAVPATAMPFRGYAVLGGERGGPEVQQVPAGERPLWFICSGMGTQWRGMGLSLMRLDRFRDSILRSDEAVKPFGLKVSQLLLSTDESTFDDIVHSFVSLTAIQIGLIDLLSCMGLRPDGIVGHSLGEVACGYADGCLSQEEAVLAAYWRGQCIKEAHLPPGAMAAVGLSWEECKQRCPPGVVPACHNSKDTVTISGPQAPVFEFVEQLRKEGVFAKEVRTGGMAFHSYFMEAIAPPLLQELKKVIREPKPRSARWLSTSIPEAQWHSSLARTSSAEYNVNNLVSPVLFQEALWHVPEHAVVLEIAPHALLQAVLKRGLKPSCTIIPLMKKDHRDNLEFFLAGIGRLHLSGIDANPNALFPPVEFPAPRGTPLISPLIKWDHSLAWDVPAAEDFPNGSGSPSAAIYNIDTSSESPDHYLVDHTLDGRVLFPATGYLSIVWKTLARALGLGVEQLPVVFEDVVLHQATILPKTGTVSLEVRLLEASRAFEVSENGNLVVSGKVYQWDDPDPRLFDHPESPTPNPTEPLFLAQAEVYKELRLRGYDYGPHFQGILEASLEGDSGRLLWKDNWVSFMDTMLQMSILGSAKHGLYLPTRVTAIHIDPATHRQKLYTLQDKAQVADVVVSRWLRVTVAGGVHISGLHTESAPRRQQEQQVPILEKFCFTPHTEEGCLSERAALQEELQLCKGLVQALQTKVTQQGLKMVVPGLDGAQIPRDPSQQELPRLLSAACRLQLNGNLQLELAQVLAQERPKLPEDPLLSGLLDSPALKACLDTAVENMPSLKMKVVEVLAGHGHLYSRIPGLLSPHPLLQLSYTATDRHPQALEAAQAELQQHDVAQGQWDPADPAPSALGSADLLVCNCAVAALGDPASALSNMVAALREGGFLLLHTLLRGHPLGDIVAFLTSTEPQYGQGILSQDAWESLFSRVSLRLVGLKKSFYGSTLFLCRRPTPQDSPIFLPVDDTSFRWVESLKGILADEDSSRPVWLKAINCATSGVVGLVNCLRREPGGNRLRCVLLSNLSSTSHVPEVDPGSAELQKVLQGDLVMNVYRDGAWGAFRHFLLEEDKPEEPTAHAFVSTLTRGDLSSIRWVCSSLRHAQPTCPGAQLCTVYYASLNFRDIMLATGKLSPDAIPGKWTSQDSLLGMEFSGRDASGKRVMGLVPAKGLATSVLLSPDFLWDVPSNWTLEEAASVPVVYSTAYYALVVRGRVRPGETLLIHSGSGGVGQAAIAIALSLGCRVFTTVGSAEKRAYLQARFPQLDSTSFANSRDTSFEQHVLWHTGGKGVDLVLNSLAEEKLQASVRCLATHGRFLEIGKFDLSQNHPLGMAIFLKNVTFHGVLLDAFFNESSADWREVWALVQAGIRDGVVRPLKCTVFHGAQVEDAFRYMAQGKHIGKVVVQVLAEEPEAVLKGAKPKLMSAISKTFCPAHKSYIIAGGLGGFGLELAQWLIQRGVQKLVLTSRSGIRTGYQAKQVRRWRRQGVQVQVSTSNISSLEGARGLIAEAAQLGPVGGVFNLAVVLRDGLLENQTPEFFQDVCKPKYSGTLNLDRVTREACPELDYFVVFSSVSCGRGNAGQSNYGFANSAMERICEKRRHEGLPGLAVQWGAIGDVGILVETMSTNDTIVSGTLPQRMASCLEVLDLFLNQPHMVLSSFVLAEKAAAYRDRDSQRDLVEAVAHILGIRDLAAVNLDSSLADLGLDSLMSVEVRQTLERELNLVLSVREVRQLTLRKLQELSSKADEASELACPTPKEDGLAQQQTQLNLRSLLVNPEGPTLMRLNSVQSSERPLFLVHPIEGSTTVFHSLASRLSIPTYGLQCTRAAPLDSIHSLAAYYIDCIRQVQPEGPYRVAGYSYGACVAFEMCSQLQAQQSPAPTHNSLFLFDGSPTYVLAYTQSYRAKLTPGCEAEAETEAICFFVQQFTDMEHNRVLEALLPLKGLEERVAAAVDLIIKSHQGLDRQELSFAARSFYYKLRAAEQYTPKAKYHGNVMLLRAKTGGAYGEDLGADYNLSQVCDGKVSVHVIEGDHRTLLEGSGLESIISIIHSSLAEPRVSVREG
Chain of Paired box protein Pax-8 (Q06710 whole entry): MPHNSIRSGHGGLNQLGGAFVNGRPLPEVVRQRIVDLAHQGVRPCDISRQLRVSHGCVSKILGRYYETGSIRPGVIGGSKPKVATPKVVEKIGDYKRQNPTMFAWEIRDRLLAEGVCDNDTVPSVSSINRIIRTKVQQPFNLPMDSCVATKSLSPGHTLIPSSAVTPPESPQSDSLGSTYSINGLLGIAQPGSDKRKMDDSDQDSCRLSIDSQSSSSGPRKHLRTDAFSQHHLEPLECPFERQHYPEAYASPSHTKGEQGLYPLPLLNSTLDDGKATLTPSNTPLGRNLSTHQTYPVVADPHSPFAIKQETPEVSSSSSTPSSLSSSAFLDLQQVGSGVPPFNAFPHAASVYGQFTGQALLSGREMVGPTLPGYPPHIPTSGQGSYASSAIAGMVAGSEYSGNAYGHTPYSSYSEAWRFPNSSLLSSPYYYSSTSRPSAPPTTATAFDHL

By EC50 is commonly meant the concentration at which the effect is half-maximal. Regarding `CC1CCN(Cc2nc(-c3ccccc3)no2)CC1`, the EC50 was 0.272 µM (active) in assay [1], 25.8 µM (active) in the assay with H4 and < 0.1 µM (active) in assay [2].

For `O=C(Nc1ccc(NC(=O)C2CC2)nc1)c1cccc(F)c1`, the EC50 in [1] is 13.1 µM (active); in the assay on H4, > 120 µM (not active); in assay [2], 11.2 µM (active).

One may read the IC50 as the point on the concentration scale where inhibition reaches its midpoint. As to `O=C(Cn1cc([N+](=O)[O-])ccc1=O)NCC1COc2ccccc2O1` (stereo not drawn), the figures for the IC50 on Fatty acid synthase [3] and on Fatty acid synthase [4] were 10.1 µM (active) and 11.5 µM (active), respectively.

For `O=C(O)/C=C\C(=O)Nc1ccccc1C#Cc1ccc(Br)cc1`, the 50% effective concentration (EC50) in assay [1] is 114 µM (active); in the assay with H4 it was 7.95 µM (active); in assay [2], 19.7 µM (active).

For `OCCC#Cc1ccc(CN2CCN(Cc3ccccc3)C(CCO)C2)cc1` (stereo not drawn), the concentration for a half-maximal effect (EC50) in “cells [5]” and in the assay “cells [6]” was > 350 µM (not active) in each case.

For `Clc1cccc(Cl)c1Cn1nnc(N2CCCC2)n1`, the values for the EC50 (in assay [1]; in the assay on H4; in assay [2]) were 12 µM (active), 20.3 µM (active) and 13.8 µM (active), respectively.

On to `CC(C)c1ccc(N(C(=O)c2csnn2)C(C(=O)NC(C)(C)C)c2ccncc2)cc1` (stereo not drawn), for which the EC50 was 5.54 µM (active) in assay [1], 22.6 µM (inconclusive) in the assay on H4 and > 120 µM (not active) in assay [2].

For `Cc1cc(C)c(C#N)c(SC[S+]([O-])Cc2ccc(Cl)cc2)n1` (stereo not drawn), the figures for the IC50 on Fatty acid synthase [3] and on Fatty acid synthase [4] were 5.88 µM (active) and 5.54 µM (active), respectively.

In the case of `CCC1Oc2ccccc2N(CC(=O)Nc2ccccc2OC)C1=O` (stereo not drawn), the EC50 in “cells [5]” and in “cells [6]” was > 350 µM (not active) throughout.

By AC50 is commonly meant the midpoint of the concentration-response curve, whichever way the signal moves. Consider `CN1c2ccc(C3=CCCCC3)cc2[C@H]2[C@H](CCN2C(=O)NC2CCCCC2)[C@@H]1CO`, for which the AC50 on Paired box protein Pax-8 is 12.3 µM (active); in assay [7] it was > 70 µM (inactive).

With `Cc1ccc(NC(=O)CCNC(=O)c2ccc([N+](=O)[O-])cc2)cc1C`, the IC50 on Fatty acid synthase [3] is 9.54 µM (active); at Fatty acid synthase [4] it was 9.29 µM (active).

As to `O=C(CSc1ccc([N+](=O)[O-])cc1)NCC1CCCCC1`, the IC50 is 8.2 µM (active) on Fatty acid synthase [3] and 11.9 µM (active) at Fatty acid synthase [4].

As to `O=C(Nc1ccc(C(=O)O)cc1)/C(=C\c1ccc([N+](=O)[O-])cc1)NC(=O)c1ccc(Br)cc1`, the figures for the 50% inhibitory concentration (IC50) at Fatty acid synthase [3] and at Fatty acid synthase [4] were 2.05 µM (active) and 1.21 µM (active), respectively.

Regarding `O/N=C1/C2C3CC4C5C3C1C5C1(OCCO1)C42` (stereo not drawn), the EC50 in the assay “cells [5]” and in “cells [6]” was > 350 µM (not active) each time.

Consider `Cn1ncc(Cl)c1C(=O)N/N=C/c1cccc(OC2CSC2)c1`, for which the EC50 in assay [8] and in [9] was > 300 µM (not active) each time.

For the molecule `O=C(COC(=O)c1cc([N+](=O)[O-])ccc1N1CCOCC1)Nc1cccc(F)c1`, the IC50 is 1.1 µM (active) at Fatty acid synthase [3] and 0.917 µM (active) on Fatty acid synthase [4].

In the case of `COc1ccc(NC(=O)CCS(=O)(=O)c2ccc3c(c2)CCN3C(C)=O)cc1`, the concentration for a half-maximal effect (EC50) in “cells [5]” and in the assay “cells [6]” was > 350 µM (not active) each time.

`C[C@@H]1CN([C@@H](C)CO)C(=O)c2c(c3ccccc3n2C)-c2ccccc2CO[C@H]1CN(C)S(=O)(=O)c1cccc(F)c1`: the results for the AC50 (on Paired box protein Pax-8; in assay [7]) were 13.7 µM (active) and 46.4 µM (active), respectively.

On to `O=C1CSC(N/N=C/c2cccs2)=N1`, for which the EC50 in assay [8] and in assay [9] was > 300 µM (not active) in each case.

For the molecule `COc1ccc(-c2cc3c(=O)n(CC(=O)NCc4ccc(F)cc4)ncn3n2)cc1`, the EC50 was 1.33 µM (active) in [1] and 0.124 µM (active) in assay [2].

Consider `CC1(C)Cc2c(C#N)c(SCCC#N)nc(N3CCOCC3)c2CO1`, for which the EC50 in the assay “cells [5]” was > 350 µM (not active); in assay [10], > 195 µM (not active); in “cells [6]”, > 350 µM (not active).
